Assay [1] can be described thus: Luminescence-based dose response cell-based high throughput screening assay for cytotoxic compounds using the IEC-6 intestinal epithelial cell line. [Related pubchem assays: 1858 (Summary AID.), 1825 (Counterscreen.), 1907 (Confirmation screen.)]. Format: functional. Background: The purpose of a counterscreen is to sort out artefacts and off-target activity.
A short description of assay [2]: Luminescence Cell-Based Dose Retest to Confirm Inhibitors of Cancer Stem Cells. [Related pubchem assays (depositor defined):AID2717, AID2721]. Format: functional. The note with it: Homo sapiens.
A short description of assay [3]: cytotoxicity in HEK-293T cells, dose response, cytotoxicity control for TCR NF-kB inhibitor project, luminescence, T-cell screen hits (AID 489026).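 Note: cells exposed to compound about 14 hours before the viability readout.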 Format: functional, cell-based.
For assay [4], the target named is Potassium voltage-gated channel subfamily KQT member 2 (Rattus norvegicus, UniProt O88943, W236L). Put plainly: KCNQ2 channel potentiators, dose response, mechanism study for KCNQ2 potentiator project, cell-based, automated electrophysiology (AID 2603). In kind it is functional.
Sequence of Potassium voltage-gated channel subfamily KQT member 2 (O88943 whole entry W236L): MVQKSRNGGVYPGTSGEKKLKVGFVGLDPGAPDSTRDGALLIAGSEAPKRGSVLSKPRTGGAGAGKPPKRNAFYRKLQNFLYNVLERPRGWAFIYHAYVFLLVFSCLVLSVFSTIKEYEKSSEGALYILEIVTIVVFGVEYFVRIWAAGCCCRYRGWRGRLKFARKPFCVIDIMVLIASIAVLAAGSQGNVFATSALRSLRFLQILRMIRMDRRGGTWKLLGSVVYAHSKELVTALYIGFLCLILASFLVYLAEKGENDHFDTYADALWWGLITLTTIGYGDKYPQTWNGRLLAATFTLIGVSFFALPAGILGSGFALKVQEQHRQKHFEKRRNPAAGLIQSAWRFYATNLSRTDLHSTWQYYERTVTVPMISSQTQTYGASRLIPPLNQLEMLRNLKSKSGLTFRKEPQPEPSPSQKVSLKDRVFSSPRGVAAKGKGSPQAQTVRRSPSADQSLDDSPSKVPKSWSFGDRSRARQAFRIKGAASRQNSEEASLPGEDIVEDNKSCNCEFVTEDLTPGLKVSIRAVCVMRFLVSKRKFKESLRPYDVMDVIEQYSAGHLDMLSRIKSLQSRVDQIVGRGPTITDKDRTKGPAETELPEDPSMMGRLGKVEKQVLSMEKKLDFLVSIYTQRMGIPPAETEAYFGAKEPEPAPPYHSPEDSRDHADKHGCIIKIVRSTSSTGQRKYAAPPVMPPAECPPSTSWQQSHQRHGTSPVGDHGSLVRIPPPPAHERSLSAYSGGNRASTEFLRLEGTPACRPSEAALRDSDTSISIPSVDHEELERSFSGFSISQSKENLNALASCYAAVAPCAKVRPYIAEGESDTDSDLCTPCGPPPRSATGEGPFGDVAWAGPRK
The target of assay [5] is T1, Estrogen receptor (Homo sapiens, UniProt P03372).
T1 sequence (P03372 whole entry): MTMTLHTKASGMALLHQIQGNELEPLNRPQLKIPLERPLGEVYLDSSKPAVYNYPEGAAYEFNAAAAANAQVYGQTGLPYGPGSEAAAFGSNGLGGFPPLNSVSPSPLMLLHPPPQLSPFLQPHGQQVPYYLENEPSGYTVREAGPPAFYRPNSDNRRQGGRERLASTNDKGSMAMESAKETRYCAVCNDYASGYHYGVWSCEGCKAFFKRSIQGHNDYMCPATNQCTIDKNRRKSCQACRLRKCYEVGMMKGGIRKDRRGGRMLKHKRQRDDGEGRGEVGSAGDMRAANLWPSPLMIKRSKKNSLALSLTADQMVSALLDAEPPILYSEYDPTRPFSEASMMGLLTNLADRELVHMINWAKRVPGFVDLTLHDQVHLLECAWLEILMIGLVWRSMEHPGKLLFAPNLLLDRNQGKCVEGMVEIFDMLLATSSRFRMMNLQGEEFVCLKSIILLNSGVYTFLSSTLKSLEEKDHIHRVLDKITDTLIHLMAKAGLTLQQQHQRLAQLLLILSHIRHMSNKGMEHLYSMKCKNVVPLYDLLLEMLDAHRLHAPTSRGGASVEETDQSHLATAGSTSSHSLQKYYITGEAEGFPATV
Another assay addresses Estrogen receptor beta (Homo sapiens, UniProt Q92731).
Assay [6] has as its target T2, E3 ubiquitin-protein ligase XIAP (Homo sapiens, UniProt P98170). Put plainly: Counter Screen using XIAP-Bir3 for Chemical Antagonists of Bir1/2 domains of IAP-family anti-apoptotic proteins. [Related pubchem assays (depositor defined):AID1018, AID1449, AID1514, AID1638, AID1749, AID1750, AID488957, AID488963].
Assay [7] deals with T2, E3 ubiquitin-protein ligase XIAP. Kind of assay: XIAP antagonists, biochemical, IAP family, fluorescence polarization (AID 1018). Format: functional. Background: Fluorescence polarisation rises when a labelled molecule tumbles more slowly, as on binding a larger partner.
A further assay has as its target NADPH oxidase 1 (Homo sapiens, UniProt Q9Y5S8). In kind it is functional, cell-based.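 Note: Cell-based assay with luminescence read-out, IC50 derived from inhibitor dose-response curves; intracellular ROS from endogenous NOX1 in intact HT29 colon cancer cells; potency of inhibitors that lower the ROS luminescence signal.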
Assay [8] can be described thus: NIH-3T3 fibroblast cytotoxicity, dose response, cytotoxicity control, cell-based, fluorescence, Alamar Blue, secondary assay (AID 2327).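 Note: NIH-3T3 mouse fibroblasts cultured with fluconazole at 8 µg/mL.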 Format: functional.
A short description of assay [9]: C. albicans growth with fluconazole, confirmation, fluorescence, retest (AID 2467). Format: functional, cell-based.
The target in assay [10] is T3, Serine/threonine-protein phosphatase (Candida dubliniensis (strain CD36 / CBS 7987 / NCPF 3949 / NRRLY-17841) (Yeast), UniProt B9W6M3).
T3 sequence (B9W6M3 whole entry): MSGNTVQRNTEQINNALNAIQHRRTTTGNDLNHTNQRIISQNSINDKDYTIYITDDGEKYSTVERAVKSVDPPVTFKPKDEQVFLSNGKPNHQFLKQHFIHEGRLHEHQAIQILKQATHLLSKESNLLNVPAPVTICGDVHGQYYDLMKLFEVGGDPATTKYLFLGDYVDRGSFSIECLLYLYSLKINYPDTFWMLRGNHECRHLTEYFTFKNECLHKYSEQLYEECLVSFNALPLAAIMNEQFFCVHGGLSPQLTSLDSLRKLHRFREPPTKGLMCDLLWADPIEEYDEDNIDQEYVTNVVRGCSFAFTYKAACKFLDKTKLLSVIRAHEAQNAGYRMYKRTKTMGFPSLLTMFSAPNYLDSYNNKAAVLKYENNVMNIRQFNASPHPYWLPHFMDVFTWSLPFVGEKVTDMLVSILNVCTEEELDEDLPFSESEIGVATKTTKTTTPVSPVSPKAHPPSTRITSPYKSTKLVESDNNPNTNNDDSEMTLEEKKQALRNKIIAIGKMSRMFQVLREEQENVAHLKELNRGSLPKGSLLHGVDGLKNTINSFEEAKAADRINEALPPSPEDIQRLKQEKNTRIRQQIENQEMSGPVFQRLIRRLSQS
Kind of assay: calcineurin pathway inhibitors in yeast reporter, dose response, S. cerevisiae, CDRE-lacZ, luminescence, secondary (AID 2388).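 Note: yeast reporter cells carrying a calcineurin-responsive lacZ construct stimulated with calcium chloride; luminescent beta-galactosidase reporter signal in whole cells rather than isolated phosphatase activity; potency for inhibition where a drop in reporter signal means calcineurin blockade.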 Format: functional, cell-based.

A short description of assay [11]: Luminescence Cell-Based Dose Confirmation HTS to Identify Inhibitors of Polyadenylation. Format: functional.
For assay [12], the target named is ATP-dependent molecular chaperone HSP82 (Candida albicans (strain WO-1) (Yeast), UniProt C4YTQ8). Put plainly: loss of DOC-induced GRE-beta-galactosidase reporter signal, dose response, Hsp90 inhibitor project, S. cerevisiae, luminescence (AID 2400).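 Note: beta-galactosidase luminescence from glucocorticoid response element reporter as proxy for Hsp90 function; inhibitor potency where signal loss means Hsp90 inhibition.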 Format: functional, cell-based.
Sequence of ATP-dependent molecular chaperone HSP82 (C4YTQ8 whole entry): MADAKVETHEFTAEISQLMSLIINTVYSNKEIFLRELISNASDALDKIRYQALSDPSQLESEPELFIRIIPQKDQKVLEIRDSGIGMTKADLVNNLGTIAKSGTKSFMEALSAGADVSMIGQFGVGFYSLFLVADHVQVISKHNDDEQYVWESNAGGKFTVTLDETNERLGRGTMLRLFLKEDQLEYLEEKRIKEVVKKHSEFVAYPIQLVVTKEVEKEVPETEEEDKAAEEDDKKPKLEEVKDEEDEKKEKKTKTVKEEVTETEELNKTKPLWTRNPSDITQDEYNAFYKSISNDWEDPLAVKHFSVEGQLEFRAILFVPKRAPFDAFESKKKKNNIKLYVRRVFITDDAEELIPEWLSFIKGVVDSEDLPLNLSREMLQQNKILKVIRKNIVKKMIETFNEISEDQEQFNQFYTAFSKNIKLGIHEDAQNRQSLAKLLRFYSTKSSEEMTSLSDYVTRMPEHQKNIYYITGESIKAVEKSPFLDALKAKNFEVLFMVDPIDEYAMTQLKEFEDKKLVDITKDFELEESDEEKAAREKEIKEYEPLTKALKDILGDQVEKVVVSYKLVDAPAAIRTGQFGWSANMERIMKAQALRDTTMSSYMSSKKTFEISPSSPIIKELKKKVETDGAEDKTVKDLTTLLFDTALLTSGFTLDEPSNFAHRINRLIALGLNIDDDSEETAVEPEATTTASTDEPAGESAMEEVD
For assay [13], the target named is T4, Sphingosine 1-phosphate receptor 2 (Homo sapiens, UniProt O95136). Put plainly: Dose Response Cell Based Assay for Agonists of the S1P2 Receptor of Purchased Analogues. [Related pubchem assays: 729, 843, 854, 736 ]. In kind it is functional.
T4 sequence (O95136 whole entry, the tested form may be a part): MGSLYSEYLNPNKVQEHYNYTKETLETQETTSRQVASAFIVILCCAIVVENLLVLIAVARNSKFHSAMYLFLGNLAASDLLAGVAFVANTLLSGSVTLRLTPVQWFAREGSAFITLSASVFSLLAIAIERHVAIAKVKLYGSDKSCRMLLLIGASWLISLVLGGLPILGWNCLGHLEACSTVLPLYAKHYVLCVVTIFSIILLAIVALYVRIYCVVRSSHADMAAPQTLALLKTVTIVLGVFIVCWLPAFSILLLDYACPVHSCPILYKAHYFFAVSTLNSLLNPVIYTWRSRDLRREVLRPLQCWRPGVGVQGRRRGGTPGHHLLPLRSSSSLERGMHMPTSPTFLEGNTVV
The target of assay [14] is T1, Estrogen receptor. Put plainly: potentiators of ERα–SRC-1 coactivator binding, dose response, biochemical, TR-FRET, ERα LBD (AID 737). For orientation: TR-FRET usually uses a lanthanide donor and a delayed reading to cut background.
Assay [15] addresses Inward rectifier potassium channel 2 (Mus musculus, UniProt P35561). Put plainly: Manual electrophysiological patch clamp assay for SAR compounds that inhibit/block inward-rectifying potassium ion channel Kir2.1. [Related pubchem assays: 1843 (Summary assay for Kir2.1 inhibitor assays.), 1672 (Primary HTS of 305616 compounds where 2592 were identified as active.)]. Format: functional.

For assay [16], the target named is T4, Sphingosine 1-phosphate receptor 2. Put plainly: Dose Response Cell-Based Assay for Agonists of the Sphingosine 1-Phosphate Receptor 2 (S1P2): Purchased Analogues. [Related pubchem assays: 1192, 373, 439 ]. Format: functional.
Assay [17] deals with Sphingosine 1-phosphate receptor 1 (Homo sapiens, UniProt P21453). Put plainly: Dose Response Cell-Based Assay for Agonists of the Sphingosine 1-Phosphate Receptor 1 (S1P1): Purchased Analogues. [Related pubchem assays: 1192, 373, 439 ]. Format: functional.
Sequence of Sphingosine 1-phosphate receptor 1 (P21453 whole entry): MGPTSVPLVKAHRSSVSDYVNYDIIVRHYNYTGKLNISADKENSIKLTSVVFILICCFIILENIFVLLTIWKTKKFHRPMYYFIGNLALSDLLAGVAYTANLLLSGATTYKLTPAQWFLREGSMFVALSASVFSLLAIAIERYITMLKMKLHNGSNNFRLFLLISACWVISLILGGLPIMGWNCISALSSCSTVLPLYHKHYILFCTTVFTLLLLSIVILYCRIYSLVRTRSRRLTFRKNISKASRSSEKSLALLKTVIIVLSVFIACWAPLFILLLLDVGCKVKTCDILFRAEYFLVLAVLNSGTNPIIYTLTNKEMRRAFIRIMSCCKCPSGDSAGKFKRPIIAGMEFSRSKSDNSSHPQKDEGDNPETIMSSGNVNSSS
Assay [18] has as its target Sphingosine 1-phosphate receptor 3 (Homo sapiens, UniProt Q99500). Put plainly: Dose Response Cell-Based Assay for Agonists of the Sphingosine 1-Phosphate Receptor 3 (S1P3): Purchased Analogues. [Related pubchem assays: 373, 439 ]. Format: functional.

This note sets out measurements from ChEMBL document CHEMBL1201862, “PubChem BioAssay data set” (2004).

The source made the active and inactive calls.
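Throughout, for AC50: cells exposed to compound for roughly 70 hours or longer before luminescence read.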

T2 sequence (P98170 whole entry): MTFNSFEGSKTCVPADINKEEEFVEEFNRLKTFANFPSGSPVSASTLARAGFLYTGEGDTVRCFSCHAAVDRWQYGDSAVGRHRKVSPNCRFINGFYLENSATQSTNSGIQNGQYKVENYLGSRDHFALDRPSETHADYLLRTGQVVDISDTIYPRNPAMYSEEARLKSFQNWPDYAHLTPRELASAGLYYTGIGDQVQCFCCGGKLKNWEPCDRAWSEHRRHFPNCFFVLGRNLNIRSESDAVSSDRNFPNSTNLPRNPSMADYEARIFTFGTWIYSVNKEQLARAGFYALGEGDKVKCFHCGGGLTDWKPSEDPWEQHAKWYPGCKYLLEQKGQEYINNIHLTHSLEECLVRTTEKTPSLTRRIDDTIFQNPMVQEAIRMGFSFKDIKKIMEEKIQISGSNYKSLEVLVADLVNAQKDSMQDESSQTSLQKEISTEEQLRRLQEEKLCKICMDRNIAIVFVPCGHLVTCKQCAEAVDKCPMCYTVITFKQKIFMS
Sequence of Sphingosine 1-phosphate receptor 3 (Q99500 whole entry): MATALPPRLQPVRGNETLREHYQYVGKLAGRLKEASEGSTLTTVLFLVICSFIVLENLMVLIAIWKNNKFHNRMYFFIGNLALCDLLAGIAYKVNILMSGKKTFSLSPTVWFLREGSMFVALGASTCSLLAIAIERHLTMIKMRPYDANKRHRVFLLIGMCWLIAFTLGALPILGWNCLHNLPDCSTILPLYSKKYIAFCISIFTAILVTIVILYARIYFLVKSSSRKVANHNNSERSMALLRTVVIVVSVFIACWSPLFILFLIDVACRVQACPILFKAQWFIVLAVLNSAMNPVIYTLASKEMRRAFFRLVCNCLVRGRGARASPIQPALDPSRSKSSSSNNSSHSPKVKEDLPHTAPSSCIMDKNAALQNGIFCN
Sequence of Estrogen receptor beta (Q92731 whole entry): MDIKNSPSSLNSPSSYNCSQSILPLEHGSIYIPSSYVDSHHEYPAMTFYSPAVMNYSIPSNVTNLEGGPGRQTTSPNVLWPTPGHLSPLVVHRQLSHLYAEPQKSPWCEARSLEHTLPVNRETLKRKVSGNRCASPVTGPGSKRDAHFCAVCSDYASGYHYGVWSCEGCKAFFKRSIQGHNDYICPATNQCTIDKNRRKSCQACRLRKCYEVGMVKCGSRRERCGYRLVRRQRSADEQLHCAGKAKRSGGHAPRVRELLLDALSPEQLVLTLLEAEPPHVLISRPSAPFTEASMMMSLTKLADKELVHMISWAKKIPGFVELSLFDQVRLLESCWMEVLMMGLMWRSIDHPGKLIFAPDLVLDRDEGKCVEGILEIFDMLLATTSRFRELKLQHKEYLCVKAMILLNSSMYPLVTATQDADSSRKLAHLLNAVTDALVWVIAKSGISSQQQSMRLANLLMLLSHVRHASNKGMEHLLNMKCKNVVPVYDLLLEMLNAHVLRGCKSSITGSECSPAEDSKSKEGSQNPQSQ
Sequence of Inward rectifier potassium channel 2 (P35561 whole entry): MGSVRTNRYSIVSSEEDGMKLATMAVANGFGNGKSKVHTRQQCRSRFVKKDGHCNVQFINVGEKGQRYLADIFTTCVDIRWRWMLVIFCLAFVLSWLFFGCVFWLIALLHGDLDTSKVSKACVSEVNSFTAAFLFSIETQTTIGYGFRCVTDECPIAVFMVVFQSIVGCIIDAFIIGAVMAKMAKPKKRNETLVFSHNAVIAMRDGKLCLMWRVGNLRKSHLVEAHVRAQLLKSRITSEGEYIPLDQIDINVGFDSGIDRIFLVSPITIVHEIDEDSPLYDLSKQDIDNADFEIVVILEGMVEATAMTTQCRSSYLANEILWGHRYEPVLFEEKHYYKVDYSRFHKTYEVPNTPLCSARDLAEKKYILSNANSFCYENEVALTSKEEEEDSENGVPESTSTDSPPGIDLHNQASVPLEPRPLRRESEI

Take `COc1ccc(NS(=O)(=O)c2cc(-c3cnc(C4CC4)o3)ccc2C)cc1`: the IC50 is 2.08 µM (active) in [1] and 70.5 µM (inactive) in assay [3]. For the same compound, the AC50 in [2] was 0.405 µM (active).

On to `CCOc1ccccc1NC(=O)NC(C)c1ccc2c(c1)OCO2` (stereo not given), for which, in assay [4], the EC50 was 1.51 µM (active).

As for `O=C(NCc1ccco1)c1cc2cc3ccc(Cl)cc3nc2o1`, the values for the IC50 on Estrogen receptor [5] and against Estrogen receptor beta were 17.7 µM (active) and > 50 µM (not active), respectively.

With `Cc1ccc(NC(=O)CNC2CCS(=O)(=O)C2)cc1C` (stereo not given), the IC50 was > 100 µM (inactive) in [6] and > 100 µM (not active) in assay [7].

For `COc1ccc(NC(=O)Nc2ccc3c(c2)CCN3S(=O)(=O)c2ccccc2)cc1`, the IC50 against NADPH oxidase 1 was > 17 µM (not active).

Consider `Cc1ccc(NC(=O)c2sc3nc(N)c(C#N)cc3c2N)cc1`, for which the EC50 in assay [8] is > 150 µM (inactive); in assay [9], 1.2 µM (active); in assay [10], > 180 µM (inactive); in assay [11], 15.2 µM (active); in [12], > 150 µM (inactive).

Take `Cc1nc(C)c(C(=O)OCC(=O)c2cc(C)n(Cc3ccccc3)c2C)s1`: the concentration for a half-maximal effect (EC50) in [13] is > 30 µM (not active).

In the case of `COc1cccc(C2CC(c3ccc(F)cc3)Nc3nc(N)nn32)c1` (stereo not given), the EC50 on Estrogen receptor [14] is 6.71 µM (not active).

For `COc1ccc(CNCc2ccc(Cl)cc2)cc1`, the IC50 in [15] was 0.711 µM (active).

Take `Cc1cc(C(=O)N(C)C2CCCCC2)no1`: the EC50 in assay [16] was > 10 µM (not active); in assay [17], > 50 µM (not active); in assay [18], > 50 µM (not active).

As usually defined, the IC50 is the concentration that gives 50% inhibition. Usually AC50 stands for the concentration at which the activity in the assay is half-maximal. The EC50 is the concentration needed to bring the measured effect to its halfway point.
